Consider one compound from patent US20240207264A1, “PHARMACEUTICAL COMPOSITIONS COMPRISING INHIBITORS OF THE ANDROGEN RECEPTOR AND USES THEREOF” (ESSA PHARMA INC., priority 2021, published 2024).

Each structure is given as a SMILES string.

The assay concerns HID28. The assay is described as follows: Enzalutamide resistant patient-derived xenograft (PDX) model HID28. The class given is in vivo, nude mice. As to conditions: HID28 PDX (AR+ PSA+), castrated male mice, 60 mg/kg, SDD, qd28. As for the experimental part:
Compound A's activity was measured in a variety of castrate-sensitive and castrate-resistant prostate cancer (CRPC) xenograft models (Table 32).
For example, intact male nude mice were engrafted with HID28 tumor fragments and once tumors reached ˜150 mm^3 the mice were castrated. The mice were enrolled in the experiment once the tumors started to regrow, 10 days post-castration. Compound A was tested in the HID28 PDX model at 60 mg/kg, QD for 28 days using SDD formulation with HPMCAS-H in 0.5% Methocel A4M in water.
Mean tumor volume in castrated nude mice bearing enzalutamide resistant patient-derived xenograft (PDX) model HID28 was measured after oral treatment with solid dispersion composition of Compound A or enzalutamide for 28 days (n=6-7 per group) is shown in FIG. 16B.
(In xenograft studies the graft and the host belong to different species.)

For the compound `CC(C)(c1ccc(OCc2ccnc(NS(C)(=O)=O)n2)cc1)c1cc(Cl)c(OCCCl)c(C#N)c1` [Compound A, N-(4-((4-(2-(3-chloro-4-(2-chloroethoxy)-5-cyanophenyl)propan-2-yl)phenoxy)methyl)pyrimidin-2-yl)methanesulfonamide], the “TGI (Tumor Growth Inhibition)” value came out at 58%.
